This is an account of results in US20230292752A1, “S[…] COMBINATIONS, COMPOSITIONS AND USE THEREOF” (UPL Corporation Limited, priority 2020, published 2023).

Holding throughout (assay type): in vivo
Assay [1] has as its system Convolvulus arvensis CONAR. Briefly: Field trial, clethodim and carfentrazone-ethyl, weed control on Convolvulus arvensis. The method, then: (§1) Field trials were performed to evaluate the efficacy of present combination, clethodim and carfentrazone-ethyl on annual grass control and dicot control in perennial crops. • Grass weeds targeted: LOLSS, BROSS, ECHSS, DIGSS, SETS S • Dicot weeds targeted: ERISS, GERSS, Sonchus sp., CONAR, Malva sp (rosette stage when application, prior stem elongation, prior flowering, prior ground cover) • Application volume: 300 L/ha
(§2) Colby's equation was used to determine the herbicidal effects expected from the mixtures. (See Colby, S. R. Calculation of the synergistic and antagonistic response of herbicide combinations. Weeds 1967, 15, 20-22.)
(§3) The following equation was used to calculate the expected activity of mixtures containing two active ingredients, A and B:
(§4) Expected=A+B−(A×B/100) • A=observed efficacy of active component A at the same concentration as used in the mixture; • B=observed efficacy of active component B at the same concentration as used in the mixture. The ability of the compositions described herein to afford suitable weed control is illustrated by the efficacy data in Table 3 to 10
Biological Activity Observed with Synergistic Mixtures of Clethodim and Carfentrazone in Applications on Convolvulus arvensis CONAR (n=2) 14-15 DAA.

For the next assay, the system named is Sonchus oleraceus SONOL. Description: Field trial, clethodim and carfentrazone-ethyl, weed control on Sonchus oleraceus. The procedure:
as §1, §2, §3, §4
Biological Activity Observed with Synergistic Mixtures of Clethodim and Carfentrazone in Applications on Sonchus oleraceus SONOL (n=2) 14-15 DAA

A further assay has as its system Bermuda grass. Briefly: Pot trial, clethodim and pyraflufen-ethyl, Bermuda grass. The note with it: 4 DAT. The method, then: (§5) Pot trials for clethodim, pyraflufen-ethyl and their combination (premix and tan-mix) were carried out against green foxtail, large crabgrass and Bermuda grass
A further assay has as its system Setaria weeds. Description: Trial on table grapes, clethodim and pyraflufen-ethyl, Setaria weed control. The note with it: 28 days after treatment. The procedure:
Clethodim and pyraflufen-ethyl were tested on table grapes as individual applications, premix and tank-mix combinations. The products were formulated as an EC formulation and compared with Glufosinate SC. Effect of the treatment was checked on Setaria weeds at 28 days after treatment.

For assay [2], the system named is Digitaria sanguinalis DIGSA. Description: Field trial, clethodim and carfentrazone-ethyl, weed control on Digitaria sanguinalis. The method, then: as §1, §2, §3, §4
Biological Activity Observed with Synergistic Mixtures of Clethodim and Carfentrazone (Carfentrazone-ethyl) in Applications on Digitaria sanguinalis DIGSA (n=2) at 56-59 DAA was represented in table below.

In another assay the test system is Green foxtail. Briefly: Pot trial, clethodim and pyraflufen-ethyl, green foxtail. The note with it: 4 DAT. The method, then: as §5
The next assay has as its system Setaria pumila SETPU. Briefly: Field trial, clethodim and carfentrazone-ethyl, weed control on Setaria pumila. The method, then:
as §1, §2, §3, §4
Biological Activity Observed with Synergistic Mixtures of Clethodim and Carfentrazone in Applications on Setaria pumila SETPU (n=1) 56-59 DAA was represented in table below

The subject of the next assay is Portulaca oleracea POROL. Description: Field trial, clethodim and carfentrazone-ethyl, weed control on Portulaca oleracea. The procedure:
as §1, §2, §3, §4
Biological Activity Observed with Synergistic Mixtures of Clethodim and Carfentrazone in Applications on Portulaca oleracea POROL (n=1) 14 DAA.

The test system of another assay is Large crabgrass. Description: Pot trial, clethodim and pyraflufen-ethyl, large crabgrass. The note with it: 4 DAT. The procedure:
as §5

The subject of another assay is Lolium multiflorum LOLMU. Description: Field trial, clethodim and carfentrazone-ethyl, weed control on Lolium multiflorum. The method, then:
as §1, §2, §3, §4
Biological Activity Observed with Synergistic Mixtures of Clethodim and Carfentrazone in Applications on Lolium multiflorum LOLMU (n=2) 56-59 DAA was represented in table below

The test system of the next assay is Senecio vulgaris SENVU. Description: Field trial, clethodim and carfentrazone-ethyl, weed control on Senecio vulgaris. The procedure:
as §1, §2, §3, §4
Biological Activity Observed with Synergistic Mixtures of Clethodim and Carfentrazone in Applications on Senecio vulgaris SENVU (n=1) 14 DAA.

The test system of assay [3] is Echinochloa crus-galli ECHCG. Briefly: Field trial, clethodim and carfentrazone-ethyl, weed control on Echinochloa crus-galli. The method, then:
as §1, §2, §3, §4
Biological Activity Observed with Synergistic Mixtures of Clethodim and Carfentrazone in Applications on Echinochloa crus-galli ECHCG (n=2) 56-59 DAA was represented in table below.

[4] abbreviates: clethodim 120 gai/ha, carfentrazone 0, n=2.
The mark [5] stands for this setting: clethodim 180 gai/ha, carfentrazone 0, n=2.
The mark [6] stands for this setting: clethodim 72 gai/ha, carfentrazone 0, n=1.
Where [7] appears, read: clethodim 120 gai/ha, carfentrazone 0, n=1.
Setting [8] is: clethodim 180 gai/ha, carfentrazone 0, n=1.
Setting [9] is: carfentrazone 60 gai/ha, clethodim 0, n=2.
[10] abbreviates: carfentrazone 30 gai/ha, clethodim 0, n=2.
[11] abbreviates: carfentrazone 45 gai/ha, clethodim 0, n=2.
Where [12] appears, read: carfentrazone 12 gai/ha, clethodim 0, n=1.
[13] abbreviates: carfentrazone 20 gai/ha, clethodim 0, n=1.
Setting [14] is: carfentrazone 30 gai/ha, clethodim 0, n=1.
Where [15] appears, read: carfentrazone 45 gai/ha, clethodim 0, n=1.
Where [16] appears, read: carfentrazone 60 gai/ha, clethodim 0, n=1.

Regarding `CCSC(C)CC1CC(=O)C(/C(CC)=N/OC/C=C/Cl)=C(O)C1` (stereo not shown) [Clethodim], the “Observed Efficacy (O) in % (14-15 DAA)” value is 8% in assay [1] (clethodim 72 gai/ha, carfentrazone 0, n=2); 12% in assay [1] (setting [4]); 8% in assay [1] (setting [5]); 13% in the assay with Sonchus oleraceus SONOL (setting [4]). The “% control (observed)” value in the assay with Bermuda grass (250 gai/ha) was 20%; in the assay with Green foxtail (250 gai/ha), 25%; with Large crabgrass (250 gai/ha), 20%. Moreover, the “Weed control % (Observed efficacy)” value with Setaria weeds (125 g ai/ha) was 85%. In addition, the “Observed Efficacy (O) in % (56-59 DAA)” value amounted to 95% in assay [2] (setting [4]); 97% in [2] (setting [5]); 43% with Setaria pumila SETPU (setting [6]); 50% in the assay on Setaria pumila SETPU (setting [7]); 94% in the assay with Setaria pumila SETPU (setting [8]); 52% in the assay with Lolium multiflorum LOLMU (setting [4]). For the same compound, the results for the “Observed Efficacy (O) in % (56-59 DAA)” value (with Lolium multiflorum LOLMU (setting [5]); in [3] (setting [4]); in assay [3] (setting [5])) were 74%, 84% and 97%, respectively. In addition, the “Observed Efficacy (O) in % (14 DAA)” value in the assay with Portulaca oleracea POROL (setting [7]) amounted to 0%; with Portulaca oleracea POROL (setting [8]), 0%; with Senecio vulgaris SENVU (setting [6]) it was 0%; with Senecio vulgaris SENVU (setting [7]) it was 2%; in the assay on Senecio vulgaris SENVU (setting [8]), 0%.

In the case of `CP(=O)(O)CCC(N)C(=O)O` (stereo not shown) [Glufosinate], in the assay with Setaria weeds (700 g ai/ha), the “Weed control % (Observed efficacy)” value came to 85%. Also, the “% control (observed)” value in the assay with Green foxtail (350 gai/ha) was 65%; in the assay with Green foxtail (700 gai/ha) it was 75%.

In the case of `CCOC(=O)COc1cc(-c2nn(C)c(OC(F)F)c2Cl)c(F)cc1Cl` [Pyraflufen-ethyl], the “% control (observed)” value in the assay on Bermuda grass (24 gai/ha) was found to be 10%; in the assay with Green foxtail (24 gai/ha), 20%; in the assay on Large crabgrass (24 gai/ha), 10%. In addition, the “Weed control % (Observed efficacy)” value with Setaria weeds (12 g ai/ha, formulated with mineral oil) was found to be 0%.

On to `CCOC(=O)C(Cl)Cc1cc(-n2nc(C)n(C(F)F)c2=O)c(F)cc1Cl` (stereo not shown) [Carfentrazone, Carfentrazone-ethyl], for which the “Observed Efficacy (O) in % (14-15 DAA)” value was 58% in [1] (carfentrazone 12 gai/ha, clethodim 0, n=2); 93% in assay [1] (setting [9]); 89% in the assay with Sonchus oleraceus SONOL (carfentrazone 20 gai/ha, clethodim 0, n=2); 92% with Sonchus oleraceus SONOL (setting [10]). Besides, the “Observed Efficacy (O) in % (56-59 DAA)” value in assay [2] (setting [10]) is reported as 13%; in assay [2] (setting [11]), 27%; in assay [2] (setting [9]) it was 17%; in the assay with Setaria pumila SETPU (setting [12]), 0%; with Setaria pumila SETPU (setting [13]), 0%; in the assay on Setaria pumila SETPU (setting [14]), 0%. In addition, the “Observed Efficacy (O) in % (56-59 DAA)” value came out at 0% in the assay with Setaria pumila SETPU (setting [15]); 0% in the assay with Setaria pumila SETPU (setting [16]); 50% in the assay with Lolium multiflorum LOLMU (setting [10]); 50% in the assay on Lolium multiflorum LOLMU (setting [11]); 50% in the assay on Lolium multiflorum LOLMU (setting [9]); 57% in [3] (setting [10]). Moreover, the “Observed Efficacy (O) in % (56-59 DAA)” value in assay [3] (setting [9]) was determined as 59%. For the same compound, the “Observed Efficacy (O) in % (14 DAA)” value in the assay on Portulaca oleracea POROL (setting [13]) was determined as 90%; in the assay with Portulaca oleracea POROL (setting [14]) it was 97%; in the assay on Portulaca oleracea POROL (setting [15]), 100%; with Portulaca oleracea POROL (setting [16]), 100%; with Senecio vulgaris SENVU (setting [12]), 88%; in the assay with Senecio vulgaris SENVU (setting [13]), 92%. In addition, the figures for the “Observed Efficacy (O) in % (14 DAA)” value in the assay on Senecio vulgaris SENVU (setting [14]), in the assay with Senecio vulgaris SENVU (setting [15]) and in the assay on Senecio vulgaris SENVU (setting [16]) were 97%, 100% and 100%, respectively.
